# In patent publication US20120321637A1, “COMBINATION CANCER THERAPY WITH HERV INHIBITION” (The Board of Regents of the University of Texas System, priority 2011, published 2012):
# Columns and labels:
# [1] = system: BRAF mutant metastatic melanomas; conditions: phase I clinical trial; cited from earlier work
# [2] = system: melanoma; conditions: monotherapy; cited from earlier work
# [3] = system: A101D cell line; conditions: human, 48 h, 1000 µM
# Description: The A101D cell line was treated with various combinations of PD98059 (P), 219476 (C), and AZT (A) for 48hrs after which the MTS assay was done.
# CellTiter 96 Aqueous One Solution Cell Proliferation Assay (MTS, Promega) was used to measure total vial cells following manufacturer's instructions. 5,000 melanoma cells were seeded in each well of 96-well plates, and were grown for 24 hrs in media with 10% Fetal Bovine Serum (FBS). After that period, media were aspirated and various combinations of treatments were added to each well in media without serum. Based on dose-response analyses, the final concentrations used were: PD90895 at 25 μM; 219476 at 1 μM; AZT at 1000 μM. The plates were incubated for a period of 24 hrs, 48hrs, and 72 hrs, respectively. Then, the MTS solution was added to each well according to the manufacturers protocol. The plates were again incubated for 2-4 hrs, after which absorbance was measured at 490 nm. Data were analyzed and compared for treatment efficiency.
structure (smiles),measurement,setting,value
CCCS(=O)(=O)Nc1ccc(F)c(C(=O)c2c[nH]c3ncc(-c4ccc(Cl)cc4)cc23)c1F [PLX4032],BRAF mutant metastatic melanomas regressed in response to treatment,[1],approximately 80%
"CNC(=O)c1cc(Oc2ccc(NC(=O)Nc3ccc(Cl)c(C(F)(F)F)c3)cc2)ccn1 [sorafenib, 4-[4-[[4-chloro-3-(trifluoromethyl)phenyl]carbamoylamino]phenoxy]-N-methyl-pyridine-2-carboxamide]",clinical benefit in melanoma patients,[2],only shows marginal clinical benefit
Cc1cn([C@H]2C[C@H](N=[N+]=[N-])[C@@H](CO)O2)c(=O)[nH]c1=O [AZT],viability,[3],87.4%
